Source: ChEMBL document CHEMBL1128246, “Synthesis and structure-activity relationships of oxamic acid and acetic acid derivatives related to L-thyronine” (J Med Chem, 1995)

What was measured:
[1] = target: T1, Thyroid hormone receptor beta (Rattus norvegicus, UniProt P18113); experiment: Ability to inhibit the bound [125I]L-T3 rat liver Nuclear L-triiodothyronine receptor is determined in vitro.
T1 sequence (P18113 whole entry): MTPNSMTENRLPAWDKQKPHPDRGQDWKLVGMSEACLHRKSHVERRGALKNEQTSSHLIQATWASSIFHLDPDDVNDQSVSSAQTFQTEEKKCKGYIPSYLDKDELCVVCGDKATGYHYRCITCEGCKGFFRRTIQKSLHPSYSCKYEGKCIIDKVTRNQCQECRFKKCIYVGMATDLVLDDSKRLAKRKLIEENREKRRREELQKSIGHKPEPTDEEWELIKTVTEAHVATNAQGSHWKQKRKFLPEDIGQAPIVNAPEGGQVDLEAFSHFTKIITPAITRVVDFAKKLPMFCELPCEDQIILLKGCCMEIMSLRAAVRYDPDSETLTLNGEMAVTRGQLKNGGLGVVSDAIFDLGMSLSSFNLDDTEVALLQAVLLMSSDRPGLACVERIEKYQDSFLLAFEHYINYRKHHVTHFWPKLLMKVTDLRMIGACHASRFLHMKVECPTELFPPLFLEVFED

Rattus norvegicus [2] = experiment: Dose which was not showing any cardiac effect in normal cholesterol rats upon peroral administration; format: functional
Rattus norvegicus [3] = experiment: Effective dose was determined in hypercholesterolemic rats for lowering total serum cholesterol compared to control upon peroral administration; format: functional; details: po
Rattus norvegicus [4] = experiment: Minimum effective dose was determined in hypercholesterolemic rats for lowering total cholesterol level compared to control upon peroral administration; format: functional; details: po, read-out: MED
Rattus norvegicus [5] = experiment: Percent change in serum LDL level was determined in hypercholesterolemic rats at 25 ug/Kg upon peroral administration; format: functional
Rattus norvegicus [6] = experiment: Percent change in serum HDL level was determined in hypercholesterolemic rats at 25 ug/Kg upon peroral administration; format: functional
Rattus norvegicus [7] = experiment: Percent change in serum HDL level was determined in hypercholesterolemic rats at 10 ug/Kg upon peroral administration; format: functional
Rattus norvegicus [8] = experiment: Percent change in serum LDL level was determined in hypercholesterolemic rats at 10 ug/Kg upon peroral administration; format: functional
Rattus norvegicus [9] = experiment: Percent change in serum HDL level was determined in hypercholesterolemic rats at 100 ug/Kg upon peroral administration; format: functional
Rattus norvegicus [10] = experiment: Percent change in serum LDL level was determined in hypercholesterolemic rats at 100 ug/Kg upon peroral administration; format: functional

Q: `CC(C)c1cc(Oc2c(I)cc(NCC(=O)O)cc2I)ccc1O` was tested. Which IC50 [1] did it give?
A: 0.31 nM

Q: Which IC50 [1] does the source give for `CC(C)c1cc(Oc2c(Cl)cc(NC(Cc3ccccc3)C(=O)O)cc2Cl)ccc1O` (stereo unspecified) here?
A: 58 nM

Q: With `Cc1cc(NC(C)C(=O)O)cc(C)c1Oc1ccc(O)c(C(C)C)c1` (stereo unspecified) as the compound, how does the IC50 [1] read?
A: 550 nM

Q: `CC(C)c1cc(Oc2c(Br)cc(SCC(=O)O)cc2Br)ccc1O` was tested. Which IC50 [1] did it give?
A: 1.5 nM

Q: For `CC(C)c1cc(Oc2c(Cl)cc(NCC(=O)O)cc2Cl)ccc1O`, which IC50 [1] is on record?
A: 1.1 nM

Q: `CCOC(=O)C(=O)Nc1cc(C)c(Oc2ccc(OC)c(C(O)c3ccc(F)cc3)c2)c(C)c1` (stereo unspecified) was tested. Which IC50 [1] did it give?
A: 34 nM

Q: Which IC50 [1] does the source give for `Cc1cc(CCC(=O)O)cc(C)c1Oc1ccc(O)c(C(C)C)c1` here?
A: > 5000 nM

Q: With `CC(C)c1cc(Oc2c(Br)cc(CCC(=O)O)cc2Br)ccc1O` as the compound, how does the IC50 [1] read?
A: 0.11 nM

Q: Which IC50 [1] does the source give for `Cc1cc(SCC(=O)O)cc(C)c1Oc1ccc(O)c(C(C)C)c1` here?
A: 3.5 nM

Q: Which Dose (Rattus norvegicus [2]) does the source give for `CC(C)c1cc(Oc2c(Cl)cc(NC(=O)C(=O)O)cc2Cl)ccc1O` here?
A: 10 mg/kg

Q: What about the ED50 (Rattus norvegicus [3]) of the same compound?
A: 0.05 mg/kg

Q: And the minimal effective dose (Rattus norvegicus [4])?
A: 0.0125 mg/kg

Q: Which IC50 [1] does the source give for `CC(Nc1cc(Cl)c(Oc2ccc(O)c(C(C)C)c2)c(Cl)c1)C(=O)O` (stereo unspecified) here?
A: 48 nM

Q: `CC(C)c1cc(Oc2c(Br)cc(OCC(=O)O)cc2Br)ccc1O` was tested. Which IC50 [1] did it give?
A: 0.1 nM

Q: For `Cc1cc(NC(Cc2ccccc2)C(=O)O)cc(C)c1Oc1ccc(O)c(C(C)C)c1` (stereo unspecified), which IC50 [1] is on record?
A: 400 nM

Q: For `Cc1cc(NCC(=O)O)cc(C)c1Oc1ccc(O)c(C(C)C)c1`, which IC50 [1] is on record?
A: 12 nM

Q: `Cc1cc(NC(=O)C(=O)O)cc(C)c1Oc1ccc(O)c(C(C)C)c1` was tested. Which Dose (Rattus norvegicus [2]) did it give?
A: 10 mg/kg

Q: What about the Change (Rattus norvegicus [5]) of the same compound?
A: -67%

Q: And the Change (Rattus norvegicus [6])?
A: -5%

Q: And the ED50 (Rattus norvegicus [3])?
A: 0.02 mg/kg

Q: What about the minimal effective dose (Rattus norvegicus [4]) of the same compound?
A: 0.01 mg/kg

Q: Which Dose (Rattus norvegicus [2]) does the source give for `CCOC(=O)C(=O)Nc1cc(C)c(Oc2ccc(O)c(C(O)c3ccc(F)cc3)c2)c(C)c1` (stereo in doubt; 23a) [AXITIROME] here?
A: >25 mg/kg

Q: What about the Change (Rattus norvegicus [7]) of the same compound?
A: 0%

Q: And the Change (Rattus norvegicus [8])?
A: -73%

Q: What about the ED50 (Rattus norvegicus [3]) of the same compound?
A: 0.005 mg/kg

Q: What about the minimal effective dose (Rattus norvegicus [4]) of the same compound?
A: < 0.001 mg/kg

Q: `N[C@@H](Cc1cc(I)c(Oc2ccc(O)c(I)c2)c(I)c1)C(=O)O` [LIOTHYRONINE] was tested. Which Dose (Rattus norvegicus [2]) did it give?
A: <0.025 mg/kg

Q: What about the Change (Rattus norvegicus [9]) of the same compound?
A: -8%

Q: What about the Change (Rattus norvegicus [10]) of the same compound?
A: -65%

Q: And the ED50 (Rattus norvegicus [3])?
A: 0.1 mg/kg

Q: And the minimal effective dose (Rattus norvegicus [4])?
A: 0.025 mg/kg
